“Also recorded” adds a separate entry of the source. Where two headings read alike, the source gives them in different places.
What was measured:
(h)NET [1] = target: T1, (h)NET (Homo sapiens, UniProt P23975); assay: competition binding with [125I]RTI-55 at (h)NET stably expressed in HEK293 cells; settings: read-out: Binding, Ki NET; mean ± standard error of three independent experiments
(h)DAT [2] = target: T2, (h)DAT (Homo sapiens, UniProt Q01959); assay: competition binding with [125I]RTI-55 at (h)DAT stably expressed in HEK293 cells; settings: mean ± standard error of three independent experiments
T2 construct: expressed in transfected cells
T2 sequence (Q01959 whole entry): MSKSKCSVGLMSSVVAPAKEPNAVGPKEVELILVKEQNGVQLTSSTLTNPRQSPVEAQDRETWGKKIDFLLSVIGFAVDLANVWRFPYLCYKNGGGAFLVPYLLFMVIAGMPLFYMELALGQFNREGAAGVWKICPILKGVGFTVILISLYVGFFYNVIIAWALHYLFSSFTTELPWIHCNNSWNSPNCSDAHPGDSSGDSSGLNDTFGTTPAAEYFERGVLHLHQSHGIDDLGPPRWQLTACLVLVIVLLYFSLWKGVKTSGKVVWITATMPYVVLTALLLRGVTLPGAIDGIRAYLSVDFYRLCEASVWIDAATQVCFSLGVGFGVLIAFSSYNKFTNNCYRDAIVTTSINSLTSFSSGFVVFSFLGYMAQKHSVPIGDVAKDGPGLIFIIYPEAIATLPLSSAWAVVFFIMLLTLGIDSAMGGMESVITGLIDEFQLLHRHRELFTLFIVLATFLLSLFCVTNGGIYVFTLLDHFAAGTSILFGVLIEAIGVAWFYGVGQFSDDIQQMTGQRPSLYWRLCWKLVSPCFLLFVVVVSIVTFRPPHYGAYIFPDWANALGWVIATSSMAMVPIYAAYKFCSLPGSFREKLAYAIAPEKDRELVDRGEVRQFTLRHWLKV

mice [3] = assay: locomotor activity, 8-h time course protocol; type: in vivo; settings: for locomotor stimulant activity across the 1-h and 8-h protocols, in words: 1-h and 8-h tests compared; for Emax / ED50: Mus musculus; for Emax: read-out: Locomotor Activity 8-Hour % Peak Cocaine, percent of cocaine's maximal effect, 30 min period of maximum stimulation; for ED50: read-out: Locomotor Activity 8-Hour ED50; for Locomotor Activity 8-Hour Time, min Period, length: duration of locomotor activity; for Locomotor Activity 8-Hour Time, min Period, max: time period of maximum effect; for onset and duration of locomotor activity, in words: mouse, in vivo
(h)DAT [4] = target: T2, (h)DAT; assay: block of [3H]dopamine reuptake in HEK-(h)DAT cells; type: cell-based; settings: for times more potent than bupropion as DA uptake inhibitor: relative to bupropion
(h)SERT [5] = target: T3, (h)SERT (Homo sapiens, UniProt P31645); settings: read-out: Binding, Ki SERT
T3 construct: expressed in transfected cells; host or cells: HEK293
T3 sequence (P31645 whole entry): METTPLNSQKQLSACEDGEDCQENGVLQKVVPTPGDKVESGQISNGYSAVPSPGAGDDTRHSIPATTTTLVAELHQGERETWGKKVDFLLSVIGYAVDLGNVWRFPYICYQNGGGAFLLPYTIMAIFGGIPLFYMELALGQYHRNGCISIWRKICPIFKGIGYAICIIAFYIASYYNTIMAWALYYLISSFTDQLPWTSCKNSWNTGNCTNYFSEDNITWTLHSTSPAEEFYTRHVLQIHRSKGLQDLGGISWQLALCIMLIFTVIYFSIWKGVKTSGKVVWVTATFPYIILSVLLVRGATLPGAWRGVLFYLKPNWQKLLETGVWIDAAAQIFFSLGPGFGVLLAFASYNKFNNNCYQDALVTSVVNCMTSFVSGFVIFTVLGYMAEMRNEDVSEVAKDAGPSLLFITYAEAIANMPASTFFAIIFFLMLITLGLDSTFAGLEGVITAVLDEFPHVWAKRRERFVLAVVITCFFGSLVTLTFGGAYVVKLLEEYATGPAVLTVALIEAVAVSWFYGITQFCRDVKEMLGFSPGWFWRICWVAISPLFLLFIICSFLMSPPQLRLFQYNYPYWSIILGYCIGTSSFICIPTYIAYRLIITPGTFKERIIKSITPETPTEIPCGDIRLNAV

(h)SERT [6] = target: T3, (h)SERT; assay: block of [3H]serotonin reuptake in HEK-(h)SERT cells; type: cell-based
(h)NET [7] = target: T1, (h)NET; assay: block of [3H]norepinephrine reuptake in HEK-(h)NET cells; settings: for times better as NE uptake inhibitors than bupropion: relative to bupropion
mice [8] = assay: locomotor activity, 1-h observation protocol; type: in vivo; settings: for Emax / ED50: Mus musculus; for Emax: 0.5 h, read-out: Locomotor Activity 1-Hour % Peak Cocaine; for ED50 / Locomotor Activity 1-Hour ED50: dose to produce 50% of the compound's maximal effect, 1-h
rats [9] = assay: cocaine discrimination (2-lever operant), i.p. administration; settings: for responders at 5 mg/kg / responders at 10 mg/kg / responders at 25 mg/kg / ED50 / responders at 50 mg/kg / responders at 100 mg/kg: Rattus norvegicus, ip; for responders at 5 mg/kg / responders at 10 mg/kg / responders at 25 mg/kg / responders at 50 mg/kg / responders at 100 mg/kg: read-out: % cocaine lever responding; for ED50: read-out: Full Generalization ED50
rats [10] = assay: cocaine discrimination time-course study, oral administration; settings: Rattus norvegicus, po, 0.75 h
[11] = dose to produce 50% of the compound's maximal effect, 8-h
[12] = mean ± standard error of three independent experiments, read-out: Uptake, IC50 [3H]DA
[13] = mean ± standard error of three independent experiments
[14] = read-out: IC50 for NE uptake inhibition, [3H]NE
[15] = [3H]DA, read-out: IC50 for DA uptake inhibition
[16] = read-out: Uptake, IC50 [3H]5-HT
[17] = read-out: Uptake, IC50 [3H]NE, mean ± standard error of three independent experiments
[18] = [3H]5HT, read-out: IC50 for 5HT uptake inhibition

T1 sequence (P23975 whole entry): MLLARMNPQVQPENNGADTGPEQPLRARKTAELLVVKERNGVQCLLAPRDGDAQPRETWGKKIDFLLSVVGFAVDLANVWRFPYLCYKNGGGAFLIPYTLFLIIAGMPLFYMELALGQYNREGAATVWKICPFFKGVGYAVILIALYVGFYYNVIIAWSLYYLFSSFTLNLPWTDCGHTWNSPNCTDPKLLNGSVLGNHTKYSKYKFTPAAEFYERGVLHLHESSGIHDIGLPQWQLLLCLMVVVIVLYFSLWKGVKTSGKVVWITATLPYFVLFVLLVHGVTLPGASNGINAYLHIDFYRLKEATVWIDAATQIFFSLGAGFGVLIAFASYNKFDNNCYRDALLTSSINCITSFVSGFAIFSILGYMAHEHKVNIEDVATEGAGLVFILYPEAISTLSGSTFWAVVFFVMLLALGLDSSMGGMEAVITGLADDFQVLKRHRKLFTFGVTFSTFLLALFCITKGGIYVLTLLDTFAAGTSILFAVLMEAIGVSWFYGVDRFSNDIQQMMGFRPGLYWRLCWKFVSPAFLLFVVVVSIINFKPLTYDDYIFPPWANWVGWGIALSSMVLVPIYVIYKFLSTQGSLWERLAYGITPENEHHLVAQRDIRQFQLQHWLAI

Structure (SMILES)	Ki ((h)NET [1]) [nM]	Ki ((h)DAT [2]) [nM]	locomotor stimulant activity across the 1-h and 8-h protocols, in words (mice [3])	Emax (mice [3]) [%]	ED50 (mice [3]; [11]) [mg/kg]	Locomotor Activity 8-Hour Time, min Period, length (mice [3]) [min]	Locomotor Activity 8-Hour Time, min Period, max (mice [3]) [min]	Ki ((h)SERT [5]; [13]) [nM]	IC50 ((h)NET [7]; [14]) [nM]	Emax (mice [8]) [%]	ED50 (mice [8]) [mg/kg]	responders at 10 mg/kg (rats [9]) [%]	responders at 25 mg/kg (rats [9]) [%]	onset and duration of locomotor activity, in words (mice [3])	IC50 ((h)DAT [4]; [15]) [nM]	Ki ((h)SERT [5]) [nM]	IC50 ((h)NET [7]; [17]) [nM]	Locomotor Activity 1-Hour ED50 (mice [8])	responders at 50 mg/kg (rats [9]) [%]	responders at 100 mg/kg (rats [9]) [%]	also measured
CCC(NC(C)(C)C)C(=O)c1ccc(Cl)c(Cl)c1 (centres unmarked) [Compound 2aa, 2-(tert-Butylamino)-3′,4′-dichlorobutyrophenone]	2240	278	weak stimulants in both tests; also recorded: moderate activity in the 1-h test with increased activity in the time-course study	84	42.2	60	0 to 30	860	135	41	50.3	10	10								DA uptake inhibition, in words ((h)DAT [4]): slightly lower IC50 values than 2j; IC50 ((h)DAT [4]; [12]): 175 nM; IC50 ((h)SERT [6]; mean ± standard error of three independent experiments, read-out: Uptake, IC50 [3H]5-HT): 0.79 µM; times better as NE uptake inhibitors than bupropion ((h)NET [7]): 10 times; responders at 5 mg/kg (rats [9]): 1%; ED50 (rats [9]): 15 mg/kg
CC(C(=O)c1cccc(Cl)c1)N1CCCCC1 (centres unmarked) [Compound 2ff, 2-Piperidino-3′-chloropropiophenone]	4760	1150	inactive in the 1-h test but showed weak stimulant activity in the 8-h protocol	45	15	470						6	17	very slow onset of stimulatory activity	1030	5480	4800	NE^f	33	34	IC50 ((h)SERT [6]; [16]): 0.97 µM
CC(NC(C)(C)C)C(=O)c1ccc(Br)cc1 (centres unmarked) [Compound 2g, 2-(N-tert-Butylamino)-4′-bromopropiophenone]		1920	inactive in the 1-h test but showed weak stimulant activity in the 8-h protocol	54	32	160	140 to 170					1	17			4170		NE^f	17	0	IC50 ((h)DAT [4]; [12]): 1300 nM; IC50 ((h)SERT [6]; [16]): 2.52 µM
CC(NC(C)(C)C)C(=O)c1ccc(Cl)c(Cl)c1 (centres unmarked) [Compound 2j, 2-(N-tert-Butylamino)-3′,4′-dichloropropiophenone]	5400	472		61	39.1	140 to 240						0	17	very slow onset of stimulatory activity	271	1480	2100	NE^f	34	2	times more potent than bupropion as DA uptake inhibitor ((h)DAT [4]): 3.5 times; generalization to the cocaine cue, in words (rats [9]; i.p.): did not even show partial generalization
Cc1ccc(C(=O)C(C)NC(C)(C)C)cc1Cl (centres unmarked) [Compound 2k, 2-(N-tert-Butylamino)-3′-chloro-4′-methylpropiophenone]	5100	1150	moderate activity in the 1-h test with increased activity in the time-course study	87		60	10 to 40	2100		74	31.9				650		900				ED50 (mice [3]; 8 h): 60.8 mg/kg; times more potent than bupropion as DA uptake inhibitor ((h)DAT [4]): 2 times; IC50 ((h)SERT [6]; [18]): 0.4 µM
Cc1cc(C(=O)C(C)NC(C)(C)C)ccc1Br (centres unmarked) [Compound 2l, 2-(N-tert-Butylamino)-4′-bromo-5′-methylpropiophenone]	4600			46	12.8	240	50 to 80					0	0			1220	1620	NE^f	17	67	IC50 ((h)SERT [6]; read-out: IC50 for 5HT uptake inhibition): 0.473 µM
CC(C)CC(NC(C)(C)C)C(=O)c1cccc(Cl)c1 (centres unmarked) [Compound 2t, 2-(N-tert-Butylamino)-3′-chlorophenyl-4-methylpentanophenone]	2300	140	weak stimulants in both tests			320	260 to 290	6200						very slow onset of stimulatory activity	440		360	47.7 mg/kg			Locomotor Activity 8-Hour ED50 (mice [3]; [11]): 22.1 mg/kg; Locomotor Activity 8-Hour % Peak Cocaine (mice [3]; percent of cocaine's maximal effect, 30 min period of maximum stimulation): 35%; IC50 ((h)SERT [6]; bound given in μM, read-out: Uptake, IC50 [3H]5-HT): > 10 µM; Locomotor Activity 1-Hour % Peak Cocaine (mice [8]; maximal effect as percent of cocaine's maximal effect in the first 30 min): 62%
CC(NC1CCC1)C(=O)c1cccc(Cl)c1 (centres unmarked) [Compound 2y, 2-(N-Cyclobutylamino)-3′-chloropropiophenone]	1800	343						3450	86						258		86				times more potent than bupropion as DA uptake inhibitor ((h)DAT [4]): 3.7 times; IC50 ((h)SERT [6]; [18]): 0.185 µM; times better as NE uptake inhibitors than bupropion ((h)NET [7]): 17 times
CC(NC1CCCC1)C(=O)c1cccc(Cl)c1 (centres unmarked) [Compound 2z, 2-(N-Cyclopentylamino)-3′-chloropropiophenone]	5700	2200	strong stimulants in both studies	110		330 to 340	0 to 30		221	110	10.6	0	66	long durations of action	980				83		ED50 (mice [3]; 8 h): 10.6 mg/kg; 5HT uptake inhibition, in words ((h)SERT [6]): totally inactive; ED50 (rats [10]): 8.28 mg/kg; responders at 5 mg/kg (rats [9]): 2%; ED50 (rats [9]): 10.8 mg/kg

— US10919841B2, “Monoamine reuptake inhibitors” (Research Triangle Institute, priority 2009, dated 2021)
